Measured values from ChEMBL document CHEMBL4373747 (ACS Med Chem Lett, 2020).

Columns and labels:
[1] = biological target: T1, Protein deacetylase HDAC6 (Homo sapiens, UniProt Q9UBN7); experiment: Inhibition of recombinant full length human HDAC6 expressed in baculovirus infected Sf9 cells using FAM-RHKK-Ac as substrate incubated for 5 hrs by electrophoretic mobility shift assay
T1 sequence (Q9UBN7 whole entry): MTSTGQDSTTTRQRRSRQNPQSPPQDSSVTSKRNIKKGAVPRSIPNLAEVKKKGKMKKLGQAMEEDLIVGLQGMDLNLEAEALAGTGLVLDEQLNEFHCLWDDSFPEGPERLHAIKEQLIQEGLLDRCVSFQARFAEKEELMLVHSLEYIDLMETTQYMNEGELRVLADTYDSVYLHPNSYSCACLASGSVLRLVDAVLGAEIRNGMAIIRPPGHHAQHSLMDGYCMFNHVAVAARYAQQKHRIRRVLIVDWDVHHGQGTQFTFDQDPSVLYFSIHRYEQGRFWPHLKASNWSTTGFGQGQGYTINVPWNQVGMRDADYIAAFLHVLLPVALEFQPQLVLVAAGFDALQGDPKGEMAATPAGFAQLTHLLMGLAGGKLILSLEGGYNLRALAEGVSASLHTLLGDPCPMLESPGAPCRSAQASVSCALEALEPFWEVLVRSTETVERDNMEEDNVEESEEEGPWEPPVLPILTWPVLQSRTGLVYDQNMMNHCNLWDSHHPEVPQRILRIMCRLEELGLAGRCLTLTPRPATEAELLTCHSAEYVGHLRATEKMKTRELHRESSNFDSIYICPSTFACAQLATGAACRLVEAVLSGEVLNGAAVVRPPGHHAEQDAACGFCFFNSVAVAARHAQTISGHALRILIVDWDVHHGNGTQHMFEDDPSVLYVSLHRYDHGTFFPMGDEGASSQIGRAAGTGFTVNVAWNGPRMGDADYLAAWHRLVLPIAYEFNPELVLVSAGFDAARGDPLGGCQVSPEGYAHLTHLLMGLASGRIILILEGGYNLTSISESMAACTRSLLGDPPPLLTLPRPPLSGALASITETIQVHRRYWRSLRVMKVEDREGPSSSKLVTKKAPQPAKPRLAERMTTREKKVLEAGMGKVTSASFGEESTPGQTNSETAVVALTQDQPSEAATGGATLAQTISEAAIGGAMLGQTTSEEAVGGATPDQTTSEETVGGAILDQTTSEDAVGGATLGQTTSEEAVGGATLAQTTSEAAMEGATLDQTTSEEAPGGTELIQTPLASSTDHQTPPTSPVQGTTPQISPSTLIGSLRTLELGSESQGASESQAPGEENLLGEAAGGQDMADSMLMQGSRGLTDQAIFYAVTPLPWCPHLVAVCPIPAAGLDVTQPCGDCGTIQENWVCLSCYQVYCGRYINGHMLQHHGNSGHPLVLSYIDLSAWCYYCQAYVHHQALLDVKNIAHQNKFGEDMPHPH

MV4-11 [2] = experiment: Cytotoxicity against human MV4-11 cells assessed as reduction in cell viability incubated for 72 hrs by cell-titer blue assay; format: functional, cell-based; settings: MV4-11, 72 h
MDA-MB-231 = experiment: Cytotoxicity against human MDA-MB-231 cells assessed as reduction in cell viability incubated for 72 hrs by cell-titer blue assay; format: functional, cell-based; settings: MDA-MB-231, 72 h
MV4-11 [3] = experiment: Induction of apoptosis in human MV4-11 cells assessed as viable cells at 0.5 uM incubated for 18 hrs by annexin V FITC and PI based flow cytometry (reference value: 53.01 to 53.07 %); format: functional; settings: Homo sapiens, MV4-11, 18 h; read-out: Activity
MV4-11 [4] = experiment: Induction of apoptosis in human MV4-11 cells assessed as viable cells at 1 uM incubated for 18 hrs by annexin V FITC and PI based flow cytometry (reference value: 53.01 to 53.07 %); format: functional; settings: Homo sapiens, MV4-11, 18 h; read-out: Activity
MV4-11 [5] = experiment: Induction of apoptosis in human MV4-11 cells assessed as viable cells at 2 uM incubated for 18 hrs by annexin V FITC and PI based flow cytometry (reference value: 53.01 to 53.07 %); format: functional; settings: Homo sapiens, MV4-11, 18 h; read-out: Activity
[6] = Intrinsic clearance in ICR/CD1 mouse hepatocytes at 1 uM measured upto 120 mins by LCMS analysis; format: ADME, cell-based, Hepatocyte; settings: 2 h
[7] = Apparent permeability from apical to basolateral side in human Caco2 cells incubated for 2 hrs by LC/MS analysis; format: ADME, cell-based, Caco-2; settings: Caco-2
[8] = Oral bioavailability in CD-1 mouse at 20 mg/kg measured upto 24 hrs by LC/MS/MS analysis; format: ADME, organism-based; settings: in vivo

IC50 [1]: 24.4 nM
CLH [6]: 49.1 µL/min
Papp A→B at 2 h [7]: 3.45 ×10⁻⁶ cm/s
bioavailability [8]: 19.8%
SMILES: CC(C)(C)c1ccc(C(=O)Nc2ccc(C(=O)NO)cc2)cc1
IC50 (MV4-11 [2]): 576 nM
IC50 (MDA-MB-231): > 25000 nM
viability at 0.5 µM (MV4-11 [3]): 48.7%
viability at 1 µM (MV4-11 [4]): 40.9%
viability at 2 µM (MV4-11 [5]): 22.1%
